Test results from patent publication US20260174716A1, “CRYSTAL FORM OF ALKYL CARBOXYLIC ACID COMPOUND AND USE THEREOF” (CONSUN PHARMACEUTICAL (INNER MONGOLIA) CO. LTD, priority 2022, published 2026).
pEC50: −log10 of the molar value. Values belong to the compound of their own block, whether it stands above or below them.

Assays:
[1] = In vitro hepatocyte metabolic stability, human; format: in vitro ADME; details: hepatocytes (cryopreserved, suspension), 0.5×10^6 cells/mL
Description: (§1) • 1. Experimental objective: The aim of the study was to assess the stability of the compounds in hepatocytes of different species. • 2. Experimental steps:
(§2) A variety of 96-well precipitation plates were prepared and labeled as T0, T15, T30, T60, T90, T0-MC, T90-MC, and blank matrix, respectively. Revival medium and incubation medium were taken in advance and pre-warmed in a 37° C. water bath. Hepatocytes of different species, stored in a liquid nitrogen tank, were taken and immediately immersed in a 37° C. water bath for approximately 90 seconds. Once partially thawed, cells were transferred to centrifuge tubes containing 40 mL of revival medium, and gently inverted to resuspend the cells in the revival medium. At room temperature, cells were centrifuged at 100×g for 5 minutes. The supernatant was discarded, and the hepatocytes were resuspended in an appropriate volume of incubation medium. Viability was calculated using trypan blue staining. 198 μL of hepatocyte suspension (0.51×10^6 cells/mL) was added to pre-warmed incubation plates. For the control group, 198 μL of hepatocyte-free incubation medium was added to T0-MC and […] plates. All plates were pre-incubated for 10 minutes in a 37° C. incubator. […] All samples were mixed well and analyzed using LC/MS/MS methods.

[2] = In vitro hepatocyte metabolic stability, mouse; format: in vitro ADME; details: hepatocytes (cryopreserved, suspension), 0.5×10^6 cells/mL
Description: as §1, §2

[3] = In vitro hepatocyte metabolic stability, rat; format: in vitro ADME; details: hepatocytes (cryopreserved, suspension), 0.5×10^6 cells/mL
Description: as §1, §2

[4] = biological target: T1, sGC (Homo sapiens, UniProt Q02153); assay: cGMP expression test based on LNCap cells (HTRF, with ODQ); format: cell-based
T1 construct: Minimum effective concentration required to stimulate cGMP production in LNCap cells; endogenous in cells; host or cells: LNCaP cells (no transfection described)
T1 sequence (Q02153 1-619): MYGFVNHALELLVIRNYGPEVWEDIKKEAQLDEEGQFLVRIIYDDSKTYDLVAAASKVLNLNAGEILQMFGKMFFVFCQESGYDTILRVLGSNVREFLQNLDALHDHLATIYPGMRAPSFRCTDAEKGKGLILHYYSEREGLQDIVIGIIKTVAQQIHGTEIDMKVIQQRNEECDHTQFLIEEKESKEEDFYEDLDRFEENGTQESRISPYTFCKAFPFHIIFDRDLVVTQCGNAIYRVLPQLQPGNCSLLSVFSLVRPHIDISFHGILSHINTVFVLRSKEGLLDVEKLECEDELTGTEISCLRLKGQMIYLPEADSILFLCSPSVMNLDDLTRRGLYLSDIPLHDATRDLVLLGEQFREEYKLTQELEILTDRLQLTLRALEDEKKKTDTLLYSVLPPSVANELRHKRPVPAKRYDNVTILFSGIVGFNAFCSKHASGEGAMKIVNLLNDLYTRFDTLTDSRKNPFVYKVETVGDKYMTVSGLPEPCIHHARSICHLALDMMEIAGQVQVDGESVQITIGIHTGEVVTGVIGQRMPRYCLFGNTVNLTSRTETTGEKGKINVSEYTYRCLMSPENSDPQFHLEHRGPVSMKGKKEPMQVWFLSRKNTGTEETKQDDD
T1 sequence (Q02108 1-690 partner): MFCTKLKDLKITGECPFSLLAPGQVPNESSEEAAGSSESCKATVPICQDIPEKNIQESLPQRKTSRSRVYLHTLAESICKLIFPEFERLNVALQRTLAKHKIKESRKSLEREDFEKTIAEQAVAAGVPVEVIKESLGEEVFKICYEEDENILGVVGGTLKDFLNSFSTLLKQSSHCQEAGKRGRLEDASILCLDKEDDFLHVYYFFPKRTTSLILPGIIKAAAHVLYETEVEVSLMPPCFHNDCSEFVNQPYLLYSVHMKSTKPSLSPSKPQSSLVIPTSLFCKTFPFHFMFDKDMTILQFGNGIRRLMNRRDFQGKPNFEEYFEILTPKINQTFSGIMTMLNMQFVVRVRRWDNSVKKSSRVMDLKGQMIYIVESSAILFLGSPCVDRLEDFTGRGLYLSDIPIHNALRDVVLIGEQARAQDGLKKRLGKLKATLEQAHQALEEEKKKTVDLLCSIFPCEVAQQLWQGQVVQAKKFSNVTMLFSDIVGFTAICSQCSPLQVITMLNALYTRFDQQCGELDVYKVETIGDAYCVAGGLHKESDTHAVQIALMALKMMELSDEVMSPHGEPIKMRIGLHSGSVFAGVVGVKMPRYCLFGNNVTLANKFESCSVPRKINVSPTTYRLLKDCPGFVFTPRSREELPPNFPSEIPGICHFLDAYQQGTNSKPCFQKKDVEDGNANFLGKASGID
Description: I. CGMP Expression Test Based on InCap Cells
10 g of BSA was dissolved in 100 mL of double-distilled water (ddH2O) to obtain 10% BSA.
1 mg of ODQ powder was weighed and dissolved in 534 μL of DMSO to prepare 10 mM ODQ solution. The solution was aliquoted and stored in a −20° C. refrigerator.
• a) 50 μL of cGMP-D2 (D2-labeled cyclic guanosine monophosphate) was added to 1 mL of lysis buffer and mixed thoroughly. • b) 50 μL of anti-cGMP cryptate (Eu^3+ cryptate-labeled anti-cyclic guanosine monophosphate antibody) was added to 1 mL of lysis buffer and mixed thoroughly.
• (1) The compound was diluted to a concentration of 10 mM using DMSO. • (2) A serial dilution of the compound was performed, resulting in 10 different concentration levels of each compound. […]
• (1) cGMP-D2 was transferred to a 384-well plate at 5 μL per well. […] Centrifugation was performed at 1500 rpm for 1 minute. • (2) Incubation was carried out at room temperature for 1 hour. • (3) The plates were read using envision at 665/615 wavelengths.
• (1) cGMP standard curve: A standard curve was generated using GraphPad Prism, based on the ratio of cGMP concentration to the 665/615 wavelength values. • (2) Conversion of HTRF (homogeneous time-resolved fluorescence) ratio (665/615) to cGMP concentration: In GraphPad Prism, the HTRF ratio (665/615) was copied to the ratio column of the cGMP standard curve. […]

[5] = Solid stability test (XRPD detection of crystal form); format: physicochemical
From the text: For samples placed under high temperature and high humidity conditions, the vial was sealed with aluminum foil punched with small holes to ensure that the samples were in full contact with the ambient air; for samples placed under strong light conditions, the vial was sealed with a threaded cap. The samples placed under different conditions were sampled and detected (XRPD) on day 5, day 10, and month 1, and the results were compared with the initial results on day 0.

half-life at 1 μM [1]: 155 min
CLint scaled at 1 μM ([1]; read-out: CLint (liver)): 24.9 mL/min/kg
half-life at 1 μM [2]: 85.2 min
CLint scaled at 1 μM ([2]; read-out: CLint (liver)): 193 mL/min/kg
half-life at 1 μM [3]: 78.2 min
CLint scaled at 1 μM ([3]; read-out: CLint (liver)): 82.9 mL/min/kg
SMILES: COC12CC([C@H](CC(=O)O)c3ccc(Cl)c(NC(=O)[C@H](c4ccc(Cl)cc4)[C@@H](C)C(F)(F)F)c3)(C1)C2 [Compound of formula (I)]

pEC50 ([4]; cGMP production in LNCap cells): 7.67
MEC ([4]; minimum effective concentration to stimulate cGMP production in LNCap cells (greater than three times the baseline value)): 6.93 nM
Crystal form ([5]; 40° C./75% RH (open), Day 5): Crystal form A
Crystal form ([5]; 40° C./75% RH (open), Day 10): Crystal form A
Crystal form ([5]; 40° C./75% RH (open), Month 1): Crystal form A
Crystal form ([5]; 60° C./75% RH (open), Day 5): Crystal form A
Crystal form ([5]; 60° C./75% RH (open), Day 10): Crystal form A
Crystal form ([5]; 60° C./75% RH (open), Month 1): Crystal form A
Crystal form ([5]; Day 0 (initial)): Crystal form A
Crystal form ([5]; High humidity (25° C./relative humidity: 92.5%, open), Day 5): Crystal form A
Crystal form ([5]; High humidity (25° C./relative humidity: 92.5%, open), Day 10): Crystal form A
Crystal form ([5]; High humidity (25° C./relative humidity: 92.5%, open), Month 1): Crystal form A
Crystal form ([5]; High temperature (60° C., open), Day 5): Crystal form A
Crystal form ([5]; High temperature (60° C., open), Day 10): Crystal form A
Crystal form ([5]; High temperature (60° C., open), Month 1): Crystal form A
Crystal form ([5]; Strong light (5000 lx, sealed), Day 5): Crystal form A
Crystal form ([5]; Strong light (5000 lx, sealed), Day 10): Crystal form A
Crystal form ([5]; Strong light (5000 lx, sealed), Month 1): Crystal form A
SMILES: COC12CC([C@H](CC(=O)O)c3ccc(Cl)c(NC(=O)[C@H](c4ccc(Cl)cc4)[C@@H](C)C(F)(F)F)c3)(C1)C2
